Results taken from PMC6713216, “Dual-target anti-Alzheimer’s disease agents with both iron ion chelating and monoamine oxidase-B inhibitory activity” (Journal of Enzyme Inhibition and Medicinal Chemistry, 2019).
Where two headings read alike, the source gives them in different places.

Tests used:
[1] = pKa determination by automatic spectrophotometric titration; assay type: physicochemical; conditions: DMSO/0.1 M KCl 2:3 (V/V) solution, DMSO:KCl (0.1 M) = 2:3 (V/V), 25 °C
Experimental: (§1) The automatic titration system used in the test consisted of an automatic titrator, a luminescence 759 s UV-Vis spectrophotometer, and a pH Meter (Mettler Toledo InLab Expert PRO/Mettler Toledo InLab Science). All instruments are controlled by a computer program.
(§2) The testing solution (2:3 DMSO/KCl (0.1 M), V/V) was maintained at 25 °C using a TP-3A temperature controller. The cuvette is mounted on a spectrophotometer. The E0 and s of the pH Meter were calibrated by three standard solutions (pH = 6.86, 9.18, 4.00). KCl solution (0.1 M) was used to maintain the ionic strength. For the Fe(III) affinity evaluation, the ratio of compounds to iron ion was kept at 1.1:1 (n/n) when Logβ1 was measured; the ratio of compounds to iron ion was kept at 5:1 (n/n) when Logβ2 and Logβ3 were tested.
The titration was performed in a 50 mm path length cuvette. 45 ml KCl (0.1 M) solution, 40 μL of saturated EDTA solution were added to the cuvette. The pH value of the solution was acidified to 2.0 with hydrochloric acid (1.5 M). Then 20 μL of test compound DMSO solution (30 μM/L) was added and stirred vigorously. By adding KOH solution (0.1 M) from the automatic buret, the pH value of the solution was increased by 0.1. […] Adding KOH solution (0.1 M) and repeated the automatic process until the specified endpoint of pH value was reached. All data were recorded internally by the Visual Basic program, and the test results are analysed by the HypSpec2014 program.

[2] = Determination of iron(III) affinity (Logβ1, Logβ2, Logβ3) by spectrophotometric titration; assay type: physicochemical; conditions: DMSO:KCl (0.1 M) = 2:3 (V/V), 25 °C; for Logβ1: compound:iron 1.1:1; for Logβ2 / Logβ3: compound:iron 5:1
Experimental: as §1, §2
A 45 ml KCl (0.1 M) solution was added to the cuvette (50 mm) and the pH value was acidified to 2.1. Then 30 μM DMSO solution of the testing compound and 60 μL acidic solution of FeCl3 (15 mM) were added separately, and the mixture was vigorously stirred. After the absorbance value is stabilised, a certain amount of HCl solution (4 M) was added by the automatic buret to reduce the pH of the solution by 0.1. After the system was equilibrated, the spectral scan was performed once after 20 min. This protocol was repeated until the specified endpoint of the pH value was reached. All data was recorded with the internal Visual Basic program, HypSpec2014 program was utilised for the data analysis.
Similarly, 45 ml KCl (0.1 M) solution was added to the cuvette (50 mm) and the pH value was acidified to 2.1. Then 30 μM DMSO solution of the testing compound and 60 μL acidic solution of FeCl3 (15 mM) were added separately, and the mixture was vigorously stirred. After the absorbance value is stabilised, a certain amount of KOH solution (0.1 M) was added by the automatic buret to increase the pH of the solution by 0.1. After the system was equilibrated, the spectral scan was performed once after 5 min. This protocol was repeated until the specified endpoint of the pH value was reached. All data were recorded with the internal Visual Basic program, HypSpec2014 program was utilised for the data analysis[5]^,[21]^,[22].

[3] = Calculation of pFe3+ by HySS software from pKa and logβ values; assay type: physicochemical; conditions: DMSO:KCl (0.1 M) = 2:3 (V/V); calculated by HySS from pKa1, pKa2, logβ1-3
Experimental: The values of pFe^3+ were calculated by HySS software according to the results of pKa1, pKa2, logβ1, logβ2, and logβ3 determined by the above methods. The basic parameters were set as follows: FeOH = –2.563, Fe(OH)2 = –6.205, Fe(OH)3 = –15.1, Fe2(OH)2 = –2.843, Fe3(OH)4 = –6.059, Fe(OH)4 = –21.883[23].

Human MAO-B = molecular target: T1, Human MAO-B (Homo sapiens, UniProt P27338); test: Determination of human MAO-B inhibitory activity (Monoamine Oxidase Assay Kit, fluorescence); assay type: biochemical; conditions: for inhibition at 1 µM: compound at 1 μM, read-out: Inhibitory rate (%) 1 μM; for inhibition at 10 µM: compound at 10 μM, read-out: Inhibitory rate (%) 10 μM
T1 construct: purchased Sigma-Aldrich
T1 sequence (P27338 1-520): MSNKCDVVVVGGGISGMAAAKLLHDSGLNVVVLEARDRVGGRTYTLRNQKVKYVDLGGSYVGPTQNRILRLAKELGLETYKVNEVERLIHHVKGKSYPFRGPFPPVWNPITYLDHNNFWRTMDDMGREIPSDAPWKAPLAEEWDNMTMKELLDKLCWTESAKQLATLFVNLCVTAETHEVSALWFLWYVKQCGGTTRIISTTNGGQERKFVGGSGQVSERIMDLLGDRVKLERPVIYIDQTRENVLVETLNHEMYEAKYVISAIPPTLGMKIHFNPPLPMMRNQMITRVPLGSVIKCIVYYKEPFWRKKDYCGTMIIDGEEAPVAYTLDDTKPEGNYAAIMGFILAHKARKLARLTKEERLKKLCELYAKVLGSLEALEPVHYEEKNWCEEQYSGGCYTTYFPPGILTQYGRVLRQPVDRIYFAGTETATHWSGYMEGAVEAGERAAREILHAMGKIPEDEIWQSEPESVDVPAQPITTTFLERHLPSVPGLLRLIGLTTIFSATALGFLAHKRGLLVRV
Experimental: Human MAO-B (5 mg/mL) was purchased from Sigma-Aldrich and was pre-aliquoted and stored at -70 °C. 200 μL enzymatic reactions were diluted in 2 ml microcentrifuge tubes by potassium phosphate buffer (Assay Buffer, pH 7.4) which have been provided by Sigma-Aldrich Monoamine Oxidase Assay Kit. The final volumes of the reactions were 100 μL and contained 45 μL MAO-B (0.0075 mg/mL), included 5 μL different concentrations of the testing inhibitors (10 μM, 1 μM), and 50 μL Master Reaction, p-Tyramine, HRP Enzyme and Dye Reagent. Stock solutions of the compounds were prepared in DMSO.

| pKa ([1]; read-out: pKa1) | pKa ([1]; read-out: pKa2) | inhibition at 1 µM (Human MAO-B) | inhibition at 10 µM (Human MAO-B) | melting point | Compound | Logβ1 [2] | Logβ2 [2] | Logβ3 [2] | pFe3+ [3] | IC50 (Human MAO-B) |
| --- | --- | --- | --- | --- | --- | --- | --- | --- | --- | --- |
| 3.3 | 9.1 | > 30% | 90.5% | – | Cc1cc(=O)c(O)c(CO)n1CCCn1cc(COc2cc3ccccc3oc2=O)nn1 [Compound 27k, 3-hydroxy-2-(hydroxymethyl)-6-methyl-1–(3-(4-(((2-oxo-2H-chromen-3-yl)oxy)methyl)-1H-1,2,3-triazol-1-yl)propyl)pyridin-4(1H)-one] | 13.6 | 24.5 | 33.0 | 18.4 | – |
| 3.4 | 9.8 | > 30% | 93.3% | 253 to 256 °C | CCc1c(O)c(=O)ccn1CCn1cc(COc2cc(=O)oc3ccccc23)nn1 [Compound 27f, 2-ethyl-3-hydroxy-1–(2-(4-(((2-oxo-2H-chromen-4-yl)oxy)methyl)-1H-1,2,3-triazol-1-yl)ethyl)pyridin-4(1H)-one] | 14.9 | 25.7 | 32.8 | 16.7 | – |
| 3 | 9.1 | 13.2% | 85.7% | 142 to 148 °C | Cc1cc(=O)c(O)c(CO)n1CCn1cc(COc2cc(=O)oc3ccccc23)nn1 [Compound 27h, 3-hydroxy-2-(hydroxymethyl)-6-methyl-1–(2-(4-(((2-oxo-2H-chromen-4-yl)oxy)methyl)-1H-1,2,3-triazol-1-yl)ethyl)pyridin-4(1H)-one] | 13.3 | 24.8 | 33.2 | 18.7 | – |

More lines, now with the values behind:

| Compound | pKa ([1]; read-out: pKa1) | pKa ([1]; read-out: pKa2) | inhibition at 1 µM (Human MAO-B) | inhibition at 10 µM (Human MAO-B) | melting point | Logβ1 [2] | Logβ2 [2] | Logβ3 [2] | pFe3+ [3] | IC50 (Human MAO-B) |
| --- | --- | --- | --- | --- | --- | --- | --- | --- | --- | --- |
| Cc1cc(=O)c(O)c(CO)n1CCCn1cc(COc2ccc3ccc(=O)oc3c2)nn1 [Compound 27b, 3-hydroxy-2-(hydroxymethyl)-6-methyl-1–(3-(4-(((2-oxo-2H-chromen-7-yl)oxy)methyl)-1H-1,2,3-triazol-1-yl)propyl)pyridin-4(1H)-one] | 2.8 | 8.8 | – | – | – | 12.9 | 25.5 | 33.5 | 19.8 | 680 nM |
| Cc1cc(=O)c(O)c(CO)n1CCn1cc(COc2ccc3ccc(=O)oc3c2)nn1 [Compound 27a, 3-hydroxy-2-(hydroxymethyl)-6-methyl-1–(2-(4-(((2-oxo-2H-chromen-7-yl)oxy)methyl)-1H-1,2,3-triazol-1-yl)ethyl)pyridin-4(1H)-one] | 2.7 | 9.2 | > 20% | 96.2% | 212 to 215 °C | 13.8 | 24.0 | 33.7 | 18.9 | – |
| CCc1c(O)c(=O)ccn1CCCn1cc(COc2ccc3ccc(=O)oc3c2)nn1 [Compound 27e, 2-ethyl-3-hydroxy-1–(3-(4-(((2-oxo-2H-chromen-7-yl)oxy)methyl)-1H-1,2,3-triazol-1-yl)propyl)pyridin-4(1H)-one] | 3.2 | 9.8 | 1.23% | 95.7% | – | 14.7 | 26.0 | 33.2 | 17.1 | – |
| Cc1cc(=O)c(O)c(C)n1CCn1cc(COc2ccc3ccc(=O)oc3c2)nn1 [Compound 27c, 3-hydroxy-2,6-dimethyl-1–(2-(4-(((2-oxo-2H-chromen-7-yl)oxy)methyl)-1H-1,2,3-triazol-1-yl)ethyl)pyridin-4(1H)-one] | 3.3 | 9.7 | 1.84% | 91% | – | 14.9 | 26.0 | 34.1 | 18.0 | – |
